Tests used:
Experiment in all cases: Test C postemergence
Type in all cases: in vivo
[1] = tested on: blackgrass (Alopecurus myosuroides); details: for Blackgrass plant response rating: scale 0 to 100 (0 no effect, 100 complete control); for Plant response rating, Blackgrass: scale 0 to 100
Procedure, shortened: (§1)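 Injury scored visually 12–14 days after application on 0–100 scale (100 = complete control), relative to controls. Compounds, formulated with surfactant in non-phytotoxic solvent, applied to soil at planting (pre) or to 1- to 4-leaf plants 2–18 cm tall (post) in greenhouse.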

wild oat (Avena fatua) = details: for Oat, Wild plant response rating: scale 0 to 100 (0 no effect, 100 complete control); for Plant response rating, Oat, Wild: scale 0 to 100
Procedure, shortened: as §1

[2] = tested on: windgrass (Apera spica-venti); details: for Windgrass plant response rating: scale 0 to 100 (0 no effect, 100 complete control); for Plant response rating, Windgrass: scale 0 to 100
Procedure, shortened: as §1

[3] = tested on: Italian ryegrass (Lolium multiflorum); details: for Ryegrass, Italian plant response rating: scale 0 to 100 (0 no effect, 100 complete control); for Plant response rating, Ryegrass, Italian: scale 0 to 100
Procedure, shortened: as §1

[4] = tested on: canarygrass (Phalaris minor); details: for Canarygrass plant response rating: scale 0 to 100 (0 no effect, 100 complete control); for Plant response rating, Canarygrass: scale 0 to 100
Procedure, shortened: as §1

[5] = tested on: downy brome (Bromus tectorum); details: for Bromegrass, Downy plant response rating: scale 0 to 100 (0 no effect, 100 complete control); for Plant response rating, Bromegrass, Downy: scale 0 to 100
Procedure, shortened: as §1

[6] = tested on: green foxtail (Setaria viridis); details: for Foxtail, Green plant response rating: scale 0 to 100 (0 no effect, 100 complete control); for Plant response rating, Foxtail, Green: scale 0 to 100
Procedure, shortened: as §1

[7] = tested on: wheat (Triticum aestivum); details: for Wheat plant response rating: scale 0 to 100 (0 no effect, 100 complete control); for Plant response rating, Wheat: scale 0 to 100
Procedure, shortened: as §1

## Nc1nc(-c2ccc(Br)cc2)nc(C(=O)O)c1Br [Compound 136]
[1]; 16 g ai/ha
  Plant response rating (scale of 0 to 100), Blackgrass: 40
[1]; 31 g ai/ha
  Plant response rating (scale of 0 to 100), Blackgrass: 55
[1]; 62 g ai/ha
  Plant response rating (scale of 0 to 100), Blackgrass: 65
[1]; 125 g ai/ha
  Blackgrass plant response rating: 65
Wild oat (Avena fatua); 16 g ai/ha
  Plant response rating (scale of 0 to 100), Oat, Wild: 40
Wild oat (Avena fatua); 31 g ai/ha
  Plant response rating (scale of 0 to 100), Oat, Wild: 45
Wild oat (Avena fatua); 62 g ai/ha
  Plant response rating (scale of 0 to 100), Oat, Wild: 55
Wild oat (Avena fatua); 125 g ai/ha
  Oat, Wild plant response rating: 60
[2]; 16 g ai/ha
  Plant response rating (scale of 0 to 100), Windgrass: 45
[2]; 31 g ai/ha
  Plant response rating (scale of 0 to 100), Windgrass: 60
[2]; 62 g ai/ha
  Plant response rating (scale of 0 to 100), Windgrass: 65
[2]; 125 g ai/ha
  Windgrass plant response rating: 65
[3]; 16 g ai/ha
  Plant response rating (scale of 0 to 100), Ryegrass, Italian: 45
[3]; 31 g ai/ha
  Plant response rating (scale of 0 to 100), Ryegrass, Italian: 50
[3]; 62 g ai/ha
  Plant response rating (scale of 0 to 100), Ryegrass, Italian: 60
[3]; 125 g ai/ha
  Ryegrass, Italian plant response rating: 65
[4]; 16 g ai/ha
  Plant response rating (scale of 0 to 100), Canarygrass: 40
[4]; 31 g ai/ha
  Plant response rating (scale of 0 to 100), Canarygrass: 45
[4]; 62 g ai/ha
  Plant response rating (scale of 0 to 100), Canarygrass: 55
[4]; 125 g ai/ha
  Canarygrass plant response rating: 65
[5]; 16 g ai/ha
  Plant response rating (scale of 0 to 100), Bromegrass, Downy: 30
[5]; 62 g ai/ha
  Plant response rating (scale of 0 to 100), Bromegrass, Downy: 45
[5]; 125 g ai/ha
  Bromegrass, Downy plant response rating: 55
[6]; 16 g ai/ha
  Plant response rating (scale of 0 to 100), Foxtail, Green: 45
[6]; 31 g ai/ha
  Plant response rating (scale of 0 to 100), Foxtail, Green: 65
[6]; 62 g ai/ha
  Plant response rating (scale of 0 to 100), Foxtail, Green: 70
[6]; 125 g ai/ha
  Foxtail, Green plant response rating: 70
[7]; 16 g ai/ha
  Plant response rating (scale of 0 to 100), Wheat: 20
[7]; 31 g ai/ha
  Plant response rating (scale of 0 to 100), Wheat: 40
[7]; 62 g ai/ha
  Plant response rating (scale of 0 to 100), Wheat: 45
[7]; 125 g ai/ha
  Wheat plant response rating: 55

## CNN=Cc1nc(C2CC2)nc(N)c1Br [Compound 49]
[1]; 62 g ai/ha
  Blackgrass plant response rating: 40
[1]; 125 g ai/ha
  Blackgrass plant response rating: 40
[1]; 250 g ai/ha
  Plant response rating, Blackgrass: 50
[1]; 500 g ai/ha
  Plant response rating, Blackgrass: 60
Wild oat (Avena fatua); 62 g ai/ha
  Oat, Wild plant response rating: 30
Wild oat (Avena fatua); 125 g ai/ha
  Oat, Wild plant response rating: 40
Wild oat (Avena fatua); 250 g ai/ha
  Plant response rating, Oat, Wild: 40
Wild oat (Avena fatua); 500 g ai/ha
  Plant response rating, Oat, Wild: 60
[2]; 62 g ai/ha
  Windgrass plant response rating: 40
[2]; 125 g ai/ha
  Windgrass plant response rating: 40
[2]; 250 g ai/ha
  Plant response rating, Windgrass: 60
[2]; 500 g ai/ha
  Plant response rating, Windgrass: 60
[3]; 62 g ai/ha
  Ryegrass, Italian plant response rating: 30
[3]; 125 g ai/ha
  Ryegrass, Italian plant response rating: 30
[3]; 250 g ai/ha
  Plant response rating, Ryegrass, Italian: 50
[3]; 500 g ai/ha
  Plant response rating, Ryegrass, Italian: 50
[4]; 62 g ai/ha
  Canarygrass plant response rating: 0
[4]; 125 g ai/ha
  Canarygrass plant response rating: 20
[4]; 250 g ai/ha
  Plant response rating, Canarygrass: 30
[4]; 500 g ai/ha
  Plant response rating, Canarygrass: 40
[5]; 62 g ai/ha
  Bromegrass, Downy plant response rating: 0
[5]; 125 g ai/ha
  Bromegrass, Downy plant response rating: 0
[5]; 250 g ai/ha
  Plant response rating, Bromegrass, Downy: 0
[5]; 500 g ai/ha
  Plant response rating, Bromegrass, Downy: 30
[6]; 62 g ai/ha
  Foxtail, Green plant response rating: 0
[6]; 125 g ai/ha
  Foxtail, Green plant response rating: 20
[6]; 250 g ai/ha
  Plant response rating, Foxtail, Green: 50
[6]; 500 g ai/ha
  Plant response rating, Foxtail, Green: 60
[7]; 62 g ai/ha
  Wheat plant response rating: 20
[7]; 125 g ai/ha
  Wheat plant response rating: 40
[7]; 250 g ai/ha
  Plant response rating, Wheat: 50
[7]; 500 g ai/ha
  Plant response rating, Wheat: 60

## COC(=O)c1nc(C2CC2)nc(N=CN(C)C)c1Br [Compound 19]
[1]; 16 g ai/ha
  Plant response rating (scale of 0 to 100), Blackgrass: 55
[1]; 31 g ai/ha
  Plant response rating (scale of 0 to 100), Blackgrass: 60
[1]; 62 g ai/ha
  Blackgrass plant response rating: 65
[1]; 125 g ai/ha
  Plant response rating, Blackgrass: 65
Wild oat (Avena fatua); 16 g ai/ha
  Plant response rating (scale of 0 to 100), Oat, Wild: 40
Wild oat (Avena fatua); 31 g ai/ha
  Plant response rating (scale of 0 to 100), Oat, Wild: 40
Wild oat (Avena fatua); 62 g ai/ha
  Oat, Wild plant response rating: 60
Wild oat (Avena fatua); 125 g ai/ha
  Oat, Wild plant response rating: 65
[2]; 16 g ai/ha
  Plant response rating (scale of 0 to 100), Windgrass: 40
[2]; 31 g ai/ha
  Plant response rating (scale of 0 to 100), Windgrass: 40
[2]; 62 g ai/ha
  Windgrass plant response rating: 60
[2]; 125 g ai/ha
  Windgrass plant response rating: 60
[3]; 16 g ai/ha
  Plant response rating (scale of 0 to 100), Ryegrass, Italian: 65
[3]; 31 g ai/ha
  Plant response rating (scale of 0 to 100), Ryegrass, Italian: 65
[3]; 62 g ai/ha
  Ryegrass, Italian plant response rating: 65
[3]; 125 g ai/ha
  Ryegrass, Italian plant response rating: 70
[4]; 16 g ai/ha
  Plant response rating (scale of 0 to 100), Canarygrass: 45
[4]; 31 g ai/ha
  Plant response rating (scale of 0 to 100), Canarygrass: 60
[4]; 62 g ai/ha
  Canarygrass plant response rating: 60
[4]; 125 g ai/ha
  Plant response rating, Canarygrass: 65
[5]; 16 g ai/ha
  Plant response rating (scale of 0 to 100), Bromegrass, Downy: 0
[5]; 31 g ai/ha
  Plant response rating (scale of 0 to 100), Bromegrass, Downy: 0
[5]; 62 g ai/ha
  Bromegrass, Downy plant response rating: 50
[5]; 125 g ai/ha
  Plant response rating, Bromegrass, Downy: 60
[6]; 16 g ai/ha
  Plant response rating (scale of 0 to 100), Foxtail, Green: 30
[6]; 31 g ai/ha
  Plant response rating (scale of 0 to 100), Foxtail, Green: 35
[6]; 62 g ai/ha
  Foxtail, Green plant response rating: 45
[6]; 125 g ai/ha
  Foxtail, Green plant response rating: 60
[7]; 16 g ai/ha
  Plant response rating (scale of 0 to 100), Wheat: 10
[7]; 31 g ai/ha
  Plant response rating (scale of 0 to 100), Wheat: 30
[7]; 62 g ai/ha
  Wheat plant response rating: 40
[7]; 125 g ai/ha
  Wheat plant response rating: 45

From patent publication US8802597B2, “Herbicidal pyrimidines” (E I du Pont de Nemours and Company, priority 2003, dated 2014)
